Values quoted from earlier work, collected in patent publication US7998710B2, “Process for purifying difructose dianhydride III” (Nippon Beet Sugar Mfg., Co., Ltd., priority 2003, dated 2011).

How the values were obtained:
[1] = test system: absorption of minerals such as Ca; settings: Patent Document 1
[2] = relative to sucrose

OC[C@H]1O[C@@]2(CO[C@]3(CO)O[C@H](CO)[C@@H](O)[C@@H]3O2)[C@@H](O)[C@@H]1O [DFA III, α-D-fructofuranose-β-D-fructofuranose-2′,1:2,3′-dianhydride]
effect of promoting the absorption of minerals such as Ca [1]: promoting the absorption of minerals such as Ca | solubility in water compared with that of sucrose [2]: 90-95%
